Test: Human HepG2 cell viability assay in 384 well format
Format: toxicity, cell-based
Parameters: dose 125 nL, time 70.5 hour; cytotoxicity at 70.5 h: concentration not given beside the values
Details: HepG2 cells, read-out: Inhibition

Compound | cytotoxicity at 70.5 h
NC(=O)C1CCN(C(=O)CCSCc2ccc(Cl)c(Cl)c2)CC1 | -7.23%
O=C(O)c1ccnc(SCC(=O)c2ccccc2)c1 | 14.5%
Cn1cnc2nc3n(c2c1=O)CCC3 | 13.6%
COC(=O)c1cnn(-c2cc(Oc3cccc(C)c3)ncn2)c1N | 4%
O=S(=O)(c1cnccc1N1CCN(CCO)CC1)N1CCCCC1 | 27.8%
CCCN(CCC)c1nc(N)nc(-c2cc(Cl)ccc2OC)n1 | -2.85%
CN1CCN(c2ccncc2S(=O)(=O)N2CCCCC2)CC1 | 0.146%
O=c1ncn(-c2cccc(F)c2)c2ncccc12 | -0.419%
Cc1ccccc1C(O)c1ccncc1 (stereo unspecified) | -8.85%
COC(=O)Cn1c(=O)nc2n1C(=O)N(c1cccc(Cl)c1)C2 | -5.07%
CCOc1ccc(Oc2cc(N)ccn2)cc1 | -4.03%
O=c1[nH]c2ccccc2c2c1CCO2 | -2.59%
COc1ccc(Cl)cc1-c1nc(N)nc(N)n1 | 26%
COc1ccccc1-n1c(O)cc(C)c(C#N)c1=O | -1.09%
CNS(=O)(=O)c1cnccc1N1CCN(C(C)C)CC1 | 2.6%
CCC(=O)NS(=O)(=O)c1cccnc1Nc1cccc(Cl)c1Cl | 31.6%
Cn1ccnc1Sc1ccc(S(N)(=O)=O)cn1 | -5.03%
O=S(=O)(c1cnccc1N1CCN(CCO)CC1)N1CCOCC1 | 11.8%
Cn1cc(I)c(C(=O)NC2CCCC2)n1 | 10.4%
CCC(CO)NCc1ccc(-c2ccccc2F)o1 (stereo unspecified) | -6.8%
O=C(CSc1nnc2n1N=CN(c1ccccc1)C2)c1ccccc1 | -7.5%
CC(=O)CSc1nnc2n1N=CN(c1cccc(Cl)c1)C2 | -8.9%
CCOC1Sc2nnc(C)n2N=C1c1ccc(F)cc1 (stereo unspecified) | -5.95%
CC(=O)c1c(O)n(C)c2ccccc12 | 25.3%

Compound | cytotoxicity at 70.5 h
COc1cc(C)c2c(c1C)C[C@@H](C(C)C(=O)O)CC2 (stereo partly specified) | -3.12%
CN(C)Cc1cn(-c2ccccc2C(=O)NCCC2CCCN2C)cn1 (stereo unspecified) | 24.5%
COCCN1CCCC(c2nccnc2-c2cccc(Cl)c2)C1 (stereo unspecified) | 21%
COc1ccccc1-c1cccc(C2CCCN(C3CCOCC3)C2)n1 (stereo unspecified) | 22.7%
CO[C@@H]1CCC[C@@H](NC(=O)c2cccc(F)c2)[C@H]1O | -1.9%
CNC(=O)c1ccc(C2CN(c3cc(C)nc(N)n3)CCO2)nc1 (stereo unspecified) | 20%
COCCN1CCN(Cc2cnc(C3(C)CCCCO3)nc2)CC1 (stereo unspecified) | 0.727%
Cn1nccc1CN1CCOC(c2ccc(-c3cncnc3)cn2)C1 (stereo unspecified) | -6.28%
Cn1nccc1-c1cncc(C2CCCN(S(C)(=O)=O)C2)n1 (stereo unspecified) | -7.56%
Cn1nccc1-c1cccc(CC2CCN(S(C)(=O)=O)C2)n1 (stereo unspecified) | -4.28%
COc1ccc(Cc2nnc(NC(=O)C3CC34CCC4)s2)cc1OC (stereo unspecified) | 0.282%
COc1nsc2nc(C3CCCN3C(C)=O)ccc12 (stereo unspecified) | -3.15%
CC(=O)N[C@@H]1CN(C(=O)c2cccc(C)c2)C[C@H]1O | -8.6%
Cc1nc(N(C)C)cc(C2(C)CCCNC2)n1 (stereo unspecified) | -2.1%
CC1(c2ncc(CN3CCN(c4ccccn4)CC3)cn2)CCCCO1 (stereo unspecified) | -1.83%
CN(C)Cc1cn(-c2ccccc2C(=O)NCC2CCCCN2C)cn1 (stereo unspecified) | 25.3%
CCC(=O)N1CCOC(c2cc(Nc3nncs3)cc(C)n2)C1 (stereo unspecified) | -5.24%
CS(=O)(=O)N1CCCC(c2cccc(-c3ccccc3F)n2)C1 (stereo unspecified) | -7.63%
O=C(c1cnco1)N1CCC(Cc2cnc3ccccc3c2)CC1 | -1.49%
O=S(=O)(c1cn[nH]c1)N1CCC(O)(CN2CCC(F)(F)CC2)C1 (stereo unspecified) | 1.83%
Cc1cccc(C)c1Nc1noc2c1CN(C(=O)c1ccn(C)n1)CC2 | 46.4%
Cc1nn(C)cc1CN1CCC(c2ncc(Cl)cc2S(C)(=O)=O)CC1 | -6.84%
CC(C)c1cc(C(=O)N2CCN(c3ncc4c(n3)CCOC4)CC2)on1 | 14.5%
O=C(NCc1ccnc(C2CCCOC2)n1)c1cccs1 (stereo unspecified) | 14.1%

Compound | cytotoxicity at 70.5 h
CN1CCCC(c2nccnc2-c2cccc(Cl)c2)C1 (stereo unspecified) | -9.62%
CO[C@@H]1CCC[C@@H](NC(=O)C(C)(C)c2cccc(F)c2)[C@H]1O | -7.35%
CC(=O)Nc1cccc([C@H]2C[C@@H](NC(C)=O)CCO2)c1 | 13.2%
Cc1nn(C)cc1CN1CCCC1c1cccc(Nc2nccs2)n1 (stereo unspecified) | 35.9%
COc1cccc(F)c1CN1CCC(c2nccc(C)n2)C1 (stereo unspecified) | -9.63%
Cc1cc(-c2ccnn2C)nc(C2CCCN(S(C)(=O)=O)C2)n1 (stereo unspecified) | -13.9%
Cn1cnc(CN2Cc3nccn3CC2c2ccccc2)c1 (stereo unspecified) | -7.94%
CCCN(CCO)S(=O)(=O)c1ccc2[nH]c(=O)[nH]c2c1 | 1.55%
CN(Cc1ncc(-c2ccccc2C(=O)O)s1)c1ncccn1 | 31.6%
CC(=O)N1CC(c2ccnc(Nc3nccs3)n2)C1 | -12.9%
O=C(NCCc1cc(N2CCOCC2)nc(N2CCCC2)n1)C1CC1 | -5.52%
COc1cc(CCC(=O)N2CCC(c3cc4ncc(C)nc4[nH]3)C2)on1 (stereo unspecified) | 19.5%
O=C(NCCc1cc(N2CCOCC2)nc(NC2CC2)n1)C1CCCO1 (stereo unspecified) | -6.3%
O=C(NCCc1cc(N2CCOCC2)nc(NC2CC2)n1)C1CC1 | -14%
Cc1nonc1CNC(=O)C(C)Oc1ccccc1F (stereo unspecified) | -7.96%
CN(C)S(=O)(=O)N1CCOC(c2cccc(-c3cncnc3)n2)C1 (stereo unspecified) | -10.8%
CN1CCCCC1(C)C(=O)N1CCC(c2ccccn2)CC1 (stereo unspecified) | 14.5%
O=C(O)c1ccccc1-c1ccc(CN2CC(c3ccncn3)C2)o1 | -5.44%
Cc1cncnc1C1CCN(C(=O)C2(C)CCCCN2C)CC1 (stereo unspecified) | -4.92%
CCC(O)Cn1nc(-c2ccc(C(=O)O)cc2)cc1-c1ccc(F)cc1 (stereo unspecified) | -5.44%
CC1(c2ncc(CN(CC(=O)O)Cc3ccccc3)cn2)CCCCO1 (stereo unspecified) | -7.96%
O=c1[nH]c2ccc(S(=O)(=O)N(CCO)Cc3ccncc3)cc2[nH]1 | -4.4%
CN(C)c1cccc(C(=O)N2CCn3c(nnc3C3CC3)C2)c1 | 19.2%
Cc1cc(-c2cnc(N3CCSCC3)nc2C(C)C)on1 | -0.852%

Compound | cytotoxicity at 70.5 h
Cc1cc(-c2cnc(N3CCCC3)nc2C(C)C)on1 | -7.72%
CC(=O)NCCc1cc2nc(-c3ccncc3)ccn2n1 | -4.37%
CCc1cc(O)n2nc(C3CCN(C(=O)c4ccncc4)CC3)cc2n1 | 20.6%
CN1CCN([C@@H]2CN(C(=O)CCOc3ccccc3)C[C@H]2O)CC1 | 10.8%
Cn1ccc2cc(CC3COCCN(C(=O)c4ccccn4)C3)ccc21 (stereo unspecified) | -6.94%
Cc1cc(Oc2ccccc2)nc(C2CCN(CCO)CC2)n1 | -6.09%
Cc1nc2ccc(C(=O)N3CCn4c(nnc4C4CC4)C3)cc2nc1C | -4.74%
CC1CCCCN1c1nc2c(c(=O)[nH]1)CCN(Cc1ccccc1F)C2 (stereo unspecified) | -5.68%
CCN(CC)C(=O)Cn1c(=O)n(Cc2ccco2)c2ncccc21 | -3.1%
Cc1ccsc1CN1CCc2c(nc(N3CCCCC3C)[nH]c2=O)C1 (stereo unspecified) | -6.71%
CCN1CCN(c2ncc(-c3cc(C)no3)c(-c3ccco3)n2)CC1 | -3.95%
COc1cnc(C2(O)CCN(C(=O)c3ccco3)CC2)c(OC)n1 | -9.83%
O=S(=O)(c1ccc(F)cc1)N1CCCC1c1cc[nH]n1 (stereo unspecified) | -7.22%
O=S(=O)(c1ccccc1)N1CCCC1c1cc[nH]n1 (stereo unspecified) | -8.7%
Cc1ccc(C(=O)N2CC[C@H](Oc3cccnc3C)[C@@H](O)CC2)s1 | 4.2%
CCn1cc(CN2CCC(c3[nH]ncc3S(C)(=O)=O)C2)cn1 (stereo unspecified) | 0.805%
Cc1nccn1-c1cncc(C2CCCN2Cc2ccccc2)n1 (stereo unspecified) | 14.2%
O=C(c1ccccc1Cl)N1CC[C@H](O)[C@@H](N2CCOCC2)CC1 | -4.63%
Cc1ncc(CN2CC[C@@](C)(O)[C@H](Oc3cccc(F)c3)C2)cn1 | 14.8%
O=C(c1ccc2c(c1)CCC2)N1CC[C@H](O)[C@]2(CCCO2)C1 | -0.381%
C[C@]1(O)CCN(Cc2nccs2)C[C@@H]1Oc1cccc(F)c1 | -3.49%
CO[C@H]1CN(C(=O)c2ccc3oc(C)cc3c2)C[C@@]12CCCO2 | -3.4%
C[C@@]1(O)CCN(Cc2cc[nH]n2)C[C@H]1Oc1cccc(F)c1 | -2.59%
C[C@]1(O)CN(Cc2ncc[nH]2)CC[C@@H]1Oc1cccc(F)c1 | -1.65%

Compound | cytotoxicity at 70.5 h
C[C@]1(O)CN(Cc2cscn2)CC[C@@H]1Oc1cccc(F)c1 | -3.07%
Cn1ccnc1CN1CCC(Cc2ccccn2)CC1 | 17.2%
Nc1ncnc2c1ncn2[C@H]1CCN(Cc2ccsc2)CC[C@@H]1O | -6.05%
COCC(=O)N1CCCC1c1nccnc1Nc1nc(C)cs1 (stereo unspecified) | -7.14%
O=C(CCn1ncc2ccccc21)N1CCCC(Cc2cccnc2)C1 (stereo unspecified) | -5.11%
O=C(CCN1CCCC1)Nc1c2c(cc3c1CCC3)CCC2 | -0.353%
O=C(c1cccnc1N1CCN(CCO)CC1)N1CCCC1 | -1.63%
CCC(CO)NCc1ccc(-c2ccc(Br)cc2)o1 (stereo unspecified) | 0.103%
CCC(CO)NCc1ccc(-c2ccc(F)c(Cl)c2)o1 (stereo unspecified) | 3.9%
CCC(CN1CCCC1)n1cncc1-c1cnn(-c2ccccc2)c1 (stereo unspecified) | -2.29%
Cc1cc(F)ccc1-c1ccccc1CC1CNCCNC1=O (stereo unspecified) | 5.41%
NC1CCc2nc(-c3ccncc3)nc(Nc3cccc(F)c3)c2C1 (stereo unspecified) | 9.56%
FC(F)(F)c1nc(C2CCNCC2)no1 | -2.97%
Cn1ccnc1C1(O)CCN(C(=O)CCc2ccccc2)CC1 | -5.37%
Cn1ccnc1C1(O)CCN(C(=O)Cc2ccccc2)CC1 | -6.34%
FC(F)CNc1cnc(C2CCNCC2)cn1 | -5.8%
CN(C)c1cccc(C(=O)N2CCCC2c2ncc3c(n2)CCNC3)c1 (stereo unspecified) | -2.08%
COc1ccc(CN(C)[C@@H]2COC[C@H]2c2ccc(F)cc2)cc1 | -10.1%
Cc1c(NC(=O)CN2CCN(C3CCCC3)C(=O)C2)cnn1C | -2.64%
c1ccc(Sc2ccc3c(c2)OCO3)c(CNC2=NCCN2)c1 | -0.794%

— ChEMBL document CHEMBL3507680, “University of Dundee, Gates Library screen for HepG2 cell viability”
